The record followed here is patent US20230094870A1, “CHEMILU[…] FOR TUBERCULOSIS” (priority 2020, published 2023).

In assay [1] the test system is Mtb strain H37Rv. In kind it is cell-based, Mycobacterium tuberculosis. To be noted: Mtb H37Rv incubated with FLASH for 1 h.
For assay [2], the system named is nontuberculous mycobacteria (NTM). Kind of assay: Detection of Mtb versus nontuberculous mycobacteria cells with FLASH probe. To be noted: IL values for millions or thousands of cells of each species, 1 h with FLASH.
Assay [3] addresses T1, recombinant Hip1 enzyme (Mycobacterium tuberculosis, UniProt P9WHR3).
T1 construct: Recombinant Hip1 was purified as previously described (Lentz et al., 2016); made in house
T1 sequence (P9WHR3 31-520): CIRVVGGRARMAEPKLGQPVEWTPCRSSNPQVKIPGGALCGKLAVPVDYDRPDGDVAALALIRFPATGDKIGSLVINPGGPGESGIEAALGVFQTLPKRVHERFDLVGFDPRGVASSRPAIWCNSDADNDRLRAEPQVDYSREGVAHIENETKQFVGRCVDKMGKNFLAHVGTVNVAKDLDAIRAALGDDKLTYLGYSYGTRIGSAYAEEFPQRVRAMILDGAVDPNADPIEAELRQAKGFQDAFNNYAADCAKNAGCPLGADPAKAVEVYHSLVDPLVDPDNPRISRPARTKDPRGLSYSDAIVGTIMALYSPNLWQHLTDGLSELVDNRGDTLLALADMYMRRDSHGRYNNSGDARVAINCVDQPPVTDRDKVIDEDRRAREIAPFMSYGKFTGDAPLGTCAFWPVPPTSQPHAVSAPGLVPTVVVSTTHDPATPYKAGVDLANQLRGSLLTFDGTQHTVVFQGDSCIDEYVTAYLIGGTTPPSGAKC
Kind of assay: Hip1 activity measurement with FLASH probe (chemiluminescence). To be noted: total integrated luminescence after 1 h. In kind it is biochemical.

Assay [4] has as its system Mtb strain mc^26020. Format: cell-based, Mycobacterium tuberculosis. To be noted: Mtb mc^26020 incubated with FLASH for 1 h.

Non-standard residues stand in square brackets, D forms with d. Residues, ends and D or L forms follow the SMILES beside them. *: point of attachment. X1 = COC1(c2ccc(/C=C/C(=O)O)c(OCc3ccc(N*)cc3)c2Cl)OOC12C1CC3CC(C1)CC2C3; Phe(4-Cl) = N[C@@H](Cc1ccc(Cl)cc1)C(=O)O; Igl = N[C@H](C(=O)O)C1Cc2ccccc2C1

As to `COC1(c2ccc(/C=C/C(=O)O)c(OCc3ccc(NC(=O)[C@H](CC(C)C)NC(=O)[C@H](CCCCN)NC(=O)[C@H](Cc4ccc(Cl)cc4)NC(=O)[C@@H](NC(C)=O)C4Cc5ccccc5C4)cc3)c2Cl)OOC12C1CC3CC(C1)CC2C3` (stereo partly shown) [FLASH] (Ac-[Igl][Phe(4-Cl)]KL-X1), the “LOD, lowest number of bacterial cells that can be detected by the probe” value in assay [1] and in assay [4] was ≤ 100,000 cells each time. Moreover, the “sensitivity to Mtb compared to nontuberculous mycobacteria” value in assay [2] was “more sensitive to Mtb compared to common nontuberculous mycobacteria”. In addition, the “limit of detection (LOD) of Hip1 enzyme” value in assay [3] is recorded as approximately 2 pmol.
